From patent US9388136B2, “Tert-butyl N-[2-{4-[6-amino-5-(2,4-difluorobenzoyl)-2-oxopyridin-1(2H)-yl]-3,5-difluorophenyl}ethyl]-L-alaninate or a salt, hydrate or solvate thereof” (Chroma Therapeutics Ltd., priority 2012, dated 2016) come the findings set out here.

Where two headings read alike, the source gives them in different places.

The subject of one assay is human whole blood. Briefly: LPS-stimulation of human whole blood, TNF-α levels by ELISA. Format: cell-based. The conditions noted are these: for IC50: LPS 100 ng/ml, 6 hrs, read-out: D—ester TNF-alpha inhibition (human whole blood), IC50. Here is the method:
Whole blood was taken by venous puncture using heparinised vacutainers (Becton Dickinson) and diluted in an equal volume of RPMI1640 tissue culture media (Sigma). 100 μl was plated in V-bottomed 96 well tissue culture treated plates. 2 hrs after the addition of the inhibitor in 100 μl of RPMI1640 media, the blood was stimulated with LPS (E coli strain 005:B5, Sigma) at a final concentration of 100 ng/ml and incubated at 37° C. in 5% CO2 for 6 hrs. TNF-α levels were measured from cell-free supernatants by sandwich ELISA (R&D Systems #QTA00B).
For orientation: ELISA stands for enzyme-linked immunosorbent assay.

Another assay concerns THP-1 cells. The experiment in a line: LPS-stimulation of THP-1 cells, TNF-α levels by ELISA. It counts as cell-based. Conditions: LPS 1 μg/ml, 6 hrs, read-out: C—ester TNF-alpha inhibition (THP-1 cells), IC50. Here is the method:
THP-1 cells were plated in 100 μl at a density of 4×10^4 cells/well in V-bottomed 96 well tissue culture treated plates and incubated at 37° C. in 5% CO2 for 16 hrs. 2 hrs after the addition of the inhibitor in 100 μl of tissue culture media, the cells were stimulated with LPS (E coli strain 005:B5, Sigma) at a final concentration of 1 μg/ml and incubated at 37° C. in 5% CO2 for 6 hrs. TNF-α levels were measured from cell-free supernatants by sandwich ELISA (R&D Systems #QTA00B).

The target of a further assay is p38 MAP Kinase a (Homo sapiens (Human), UniProt Q16539). Briefly: p38 MAP kinase enzyme assay (radiometric filter-binding). Format: biochemical. Here is the method:
The ability of compounds to inhibit p38 MAP a Kinase activity was measured in an assay performed by Upstate (Dundee UK). In a final reaction volume of 25 μL, p38 MAP Kinase a (5-10 mU) is incubated with 25 mM Tris pH 7.5, 0.002 mMEGTA, 0.33 mg/mL myelin basic protein, 10 mM MgAcetate and [g-33p-ATP] (specific activity approx. 500 cpm/pmol, concentration as required). The reaction is initiated by the addition of the MgATP mix. After incubation for 40 minutes at room temperature, the reaction is stopped by the addition of 5 μL of a 3% phosphoric acid solution. 10 μL of the reaction is then spotted onto a P30 filtermat and washed three times for 5 minutes in 75 mM phosphoric acid and once in methanol prior to drying and scintillation counting.
Duplicate data points are generated from a 1/3 log dilution series of a stock solution in DMSO. Nine dilutions steps are made from a top concentration of 10 μM, and a ‘no compound’ blank is included. The standard radiometric filter-binding assay is performed at an ATP concentration at, or close to, the Km. Data from scintillation counts are collected and subjected to free-fit analysis by Prism software.

The mark [1] stands for this setting: corresponding acid (hydrolysis product of the named ester) tested, read-out: B—acid enzyme assay (p38 kinase A (invitrogen)), IC50.
Where [2] appears, read: ester tested, read-out: A—ester enzyme assay (p38 kinase A (invitrogen)), IC50.

Sequence of p38 MAP Kinase a (Q16539 whole entry): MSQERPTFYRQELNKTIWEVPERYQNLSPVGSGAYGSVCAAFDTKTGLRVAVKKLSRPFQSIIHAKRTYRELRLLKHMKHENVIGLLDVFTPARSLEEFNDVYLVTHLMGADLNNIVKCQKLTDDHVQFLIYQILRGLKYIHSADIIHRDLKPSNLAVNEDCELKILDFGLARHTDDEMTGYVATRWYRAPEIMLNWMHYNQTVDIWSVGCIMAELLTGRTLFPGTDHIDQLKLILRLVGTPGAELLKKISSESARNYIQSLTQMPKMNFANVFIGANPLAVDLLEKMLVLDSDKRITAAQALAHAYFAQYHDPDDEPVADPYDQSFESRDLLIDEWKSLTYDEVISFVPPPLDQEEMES

With `CC(C)(C)OC[C@H](NCCc1cc(F)c(-n2c(N)c(C(=O)c3ccc(F)cc3F)ccc2=O)c(F)c1)C(=O)OC1CCCC1` [Cyclopentyl N-(2-{4-[6-amino-5-(2,4-difluoro-benzoyl)-2-oxopyridin-1(2H)-yl]-3,5-difluorophenyl}ethyl)-O-tert-butyl-L-serinate], the IC50 – broadly, the midpoint of a concentration-inhibition curve – in the assay with human whole blood (Homo sapiens) turned out to be 1300 nM; with THP-1 cells (Homo sapiens, THP-1), 5.7 nM; on p38 MAP Kinase a (setting [1]), 1 nM; at p38 MAP Kinase a (setting [2]), 57 nM.

Take `CC(C)C[C@H](NCCc1ccc(-n2c(N)c(C(=O)c3ccc(F)cc3)ccc2=O)cc1)C(=O)OC(C)(C)C` [tert-Butyl N-[2-(4-{6-amino-5-[(4-fluoro-phenyl)carbonyl]-2-oxopyridin-1(2H)-yl}phenyl)ethyl]-L-leucinate]: the IC50 with human whole blood (Homo sapiens) is 947 nM; in the assay on THP-1 cells (Homo sapiens, THP-1), 19 nM; on p38 MAP Kinase a (setting [1]) it was 118 nM; at p38 MAP Kinase a (setting [2]) it was 724 nM.

As for `CC(C)C[C@H](NCCc1cc(F)c(-n2c(N)c(C(=O)c3ccc(F)cc3)ccc2=O)c(F)c1)C(=O)OC1CCCC1` [Cyclopentyl N-(2-{4-[6-amino-5-(4-fluoro-benzoyl)-2-oxopyridin-1(2H)-yl]-3,5-difluorophenyl}ethyl)-L-leucinate], the IC50 in the assay with human whole blood (Homo sapiens) is 190 nM; with THP-1 cells (Homo sapiens, THP-1) it was 0.9 nM; on p38 MAP Kinase a (setting [1]), 1 nM; at p38 MAP Kinase a (setting [2]), 12 nM.

For `NCC[C@H](NCCCOc1cc(F)c(-n2c(N)c(C(=O)c3ccc(F)cc3F)ccc2=O)c(F)c1)C(=O)OC1CCCC1` [Cyclopentyl (2S)-4-amino-2-[(3-{4-[6-amino-5-(2,4-difluoro-benzoyl)-2-oxopyridin-1(2H)-yl]-3,5-difluoro-phenoxy}propyl)amino]butanoate], the IC50 in the assay with human whole blood (Homo sapiens) was found to be 479 nM; in the assay on THP-1 cells (Homo sapiens, THP-1), 22 nM; on p38 MAP Kinase a (setting [1]) it was 5 nM; on p38 MAP Kinase a (setting [2]), 1 nM.

Consider `CC(C)C[C@@H](NCCc1cc(F)c(-n2c(N)c(C(=O)c3ccc(F)cc3F)ccc2=O)c(F)c1)C(=O)OC(C)(C)C` [tert-butyl N-(2-{4-[6-amino-5-(2,4-difluoro-benzoyl)-2-oxopyridin-1(2H)-yl]-3,5-difluoro-phenyl}ethyl)-D-leucinate], for which the “D—ester TNF-alpha inhibition (human whole blood), % at single concentration” value in the assay with human whole blood (@ 10 μm) is given as 0% @ 10 μm. In addition, the IC50 came to 81 nM in the assay on THP-1 cells (Homo sapiens, THP-1); 2 nM at p38 MAP Kinase a (setting [1]); 167 nM at p38 MAP Kinase a (setting [2]).

Regarding `Nc1c(C(=O)c2ccc(F)cc2F)ccc(=O)n1-c1c(F)cc(OCCCN[C@@H](C(=O)OC2CCCC2)c2ccccc2)cc1F` [Cyclopentyl (2R)-[(3-{4-[6-amino-5-(2,4-difluorobenzoyl)-2-oxopyridin-1(2H)-yl]-3,5-difluorophenoxy}propyl)amino] (phenyl)acetate], the IC50 in the assay with THP-1 cells (Homo sapiens, THP-1) stood at 6 nM.

For `CC(C)C[C@H](NCCCCCOc1cc(F)c(-n2c(N)c(C(=O)c3ccc(F)cc3F)ccc2=O)c(F)c1)C(=O)OC1CCCC1` [Cyclopentyl N-(5-{4-[6-amino-5-(2,4-difluorobenzoyl)-2-oxopyridin-1(2H)-yl]-3,5 - difluorophenoxy}pentyl)-L-leucinate], the IC50 was determined as 179 nM in the assay on human whole blood (Homo sapiens); 4.2 nM in the assay on THP-1 cells (Homo sapiens, THP-1); 2 nM on p38 MAP Kinase a (setting [1]); 81 nM on p38 MAP Kinase a (setting [2]).

Turning to `CC(C)C[C@H](NCCCOc1cc(F)c(-n2c(N)c(C(=O)c3ccc(F)cc3F)ccc2=O)c(F)c1)C(=O)OC(C)(C)C` [tert-Butyl (S)-2-(3-{4-[6-Amino-5-(2,4-difluorobenzoyl)-2-oxo-2H-pyridin-1-yl]-3,5-difluoro-phenoxy}propyl-amino)-4-methyl pentanoate], the IC50 in the assay with human whole blood (Homo sapiens) was determined as 4270 nM; with THP-1 cells (Homo sapiens, THP-1), 76.1 nM.

Regarding `CC(C)[C@H](NCCc1cc(F)c(-n2c(N)c(C(=O)c3ccc(F)cc3F)ccc2=O)c(F)c1)C(=O)OC1CCCC1` [Cyclopentyl N-[2-(4-{6-amino-5-[(2,4-difluoro-phenyl)carbonyl]-2-oxopyridin-1(2H)-yl}-3,5 difluorophenyl)ethyl]-L-valinate], the IC50 amounted to 5180 nM in the assay on human whole blood (Homo sapiens); 8.4 nM in the assay on THP-1 cells (Homo sapiens, THP-1); 22 nM on p38 MAP Kinase a (setting [2]).

Turning to `CC(C)(C)OC(=O)[C@@H](NCCc1cc(F)c(-n2c(N)c(C(=O)c3ccc(F)cc3F)ccc2=O)c(F)c1)c1ccccc1` [tert-butyl (2S)-[(2-{4-[6-amino-5-(2,4-difluoro-benzoyl)-2-oxopyridin-1(2H)-yl]-3,5-difluorophenyl}ethyl)amino] (phenyl)acetate], the IC50 in the assay on human whole blood (Homo sapiens) came to 779 nM; in the assay with THP-1 cells (Homo sapiens, THP-1), 2 nM.

On to `CCOC(=O)[C@H](CC(C)C)NCCCOc1cc(F)c(-n2c(N)c(C(=O)c3ccc(F)cc3)ccc2=O)c(F)c1` [Ethyl N-(3-{4-[6-amino-5-(4-fluoro-benzoyl)-2-oxopyridin-1(2H)-yl]-3,5-difluorophenoxy}propyl)-L-leucinate], for which the IC50 in the assay on THP-1 cells (Homo sapiens, THP-1) was 8.6 nM; at p38 MAP Kinase a (setting [2]) it was 28 nM.

`Nc1c(C(=O)c2ccc(F)cc2F)ccc(=O)n1-c1c(F)cc(OCCCN[C@H](C(=O)OC2CCCC2)c2ccccc2)cc1F` [Cyclopentyl (S)-(3-{4-[6-Amino-5-(2,4-difluorobenzoyl)-2-oxo-2H-pyridin-1-yl]-3,5-difluoro-phenoxy}propylamino) phenyl acetate]: the IC50 with human whole blood (Homo sapiens) stood at 508 nM; in the assay with THP-1 cells (Homo sapiens, THP-1), 5.3 nM.

Turning to `C[C@@H](O)[C@H](NCCc1ccc(-n2c(N)c(C(=O)c3ccc(F)cc3F)ccc2=O)cc1)C(=O)OC1CCCC1` [Cyclopentyl N-[2-(4-{6-amino-5-[(2,4-difluoro-phenyl)carbonyl]-2-oxopyridin-1(2H)-yl}phenyl)ethyl]-L-threoninate], the IC50 is 1200 nM in the assay on human whole blood (Homo sapiens); 1.8 nM in the assay with THP-1 cells (Homo sapiens, THP-1); 56 nM at p38 MAP Kinase a (setting [1]); 68 nM on p38 MAP Kinase a (setting [2]).

In the case of `Nc1c(C(=O)c2ccc(F)cc2)ccc(=O)n1-c1c(F)cc(OCCCN[C@H](C(=O)OC2CCCC2)c2ccccc2)cc1F` [Cyclopentyl (S)-(3-{4-[6-Amino-5-(4-fluorobenzoyl)-2-oxo-2H-pyridin-1-yl]-3,5-difluoro-phenoxy}propylamino) phenylacetate], the IC50 with THP-1 cells (Homo sapiens, THP-1) was determined as 38 nM.

As for `Nc1c(C(=O)c2ccc(F)cc2F)ccc(=O)n1-c1c(F)cc(CCN[C@@H](C(=O)OC2CCCC2)c2ccccc2)cc1F` [Cyclopentyl (2R)-[(2-{4-[6-amino-5-(2,4-difluoro-benzoyl)-2-oxopyridin-1(2H)-yl]-3,5-difluorophenyl}ethyl)amino] (phenyl)acetate], the IC50 in the assay with human whole blood was 4110 nM; in the assay on THP-1 cells it was 21 nM; at p38 MAP Kinase a (setting [2]), 47 nM.

On to `Nc1c(C(=O)c2ccc(F)cc2F)ccc(=O)n1-c1c(F)cc(CCN[C@H](C(=O)OC2CCCC2)c2ccccc2)cc1F` [Cyclopentyl (2S)-[(2-{4-[6-amino-5-(2,4-difluorobenzoyl)-2-oxopyridin-1(2H)-yl]-3,5-difluorophenyl}ethyl)amino] (phenyl)acetate], for which the IC50 stood at 148 nM in the assay on human whole blood (Homo sapiens); 0.5 nM with THP-1 cells (Homo sapiens, THP-1); 1 nM at p38 MAP Kinase a (setting [1]); 65 nM at p38 MAP Kinase a (setting [2]).

Turning to `CC(C)(C)OC[C@H](NCCc1cc(F)c(-n2c(N)c(C(=O)c3ccc(F)cc3F)ccc2=O)c(F)c1)C(=O)OC(C)(C)C` [tert-butyl N-(2-{4-[6-amino-5-(2,4-difluoro-benzoyl)-2-oxopyridin-1(2H)-yl]-3,5-difluorophenyl}ethyl)-O-tert-butyl-L-serinate], the IC50 turned out to be 83 nM in the assay on THP-1 cells (Homo sapiens, THP-1); 1 nM at p38 MAP Kinase a (setting [1]); 72 nM at p38 MAP Kinase a (setting [2]).

As to `CC(C)C[C@H](NCCCOc1cc(F)c(-n2c(N)c(C(=O)c3ccc(F)cc3F)ccc2=O)c(F)c1)C(=O)OC1CCCC1` [Cyclopentyl (S)-2-(3-{4-[6-Amino-5-(2,4-difluorobenzoyl)-2-oxo-2H-pyridin-1-yl]-3,5-difluoro-phenoxy}propyl-amino)-4-methyl pentanoate], the IC50 was 594 nM with human whole blood (Homo sapiens) and 10.7 nM in the assay on THP-1 cells (Homo sapiens, THP-1).

For `CC(C)C[C@H](NCCCOc1cc(F)c(-n2c(N)c(C(=O)c3ccc(F)cc3F)ccc2=O)c(F)c1)C(=O)OCCN1CCOCC1` [2-Morpholin-4-ylethyl N-(3-{4-[6-amino-5-(2,4-difluorobenzoyl)-2-oxopyridin-1(2H)-yl]-3,5-difluoro-phenoxy}propyl)-L-leucinate], the IC50 in the assay with human whole blood (Homo sapiens) came to 935 nM; in the assay with THP-1 cells (Homo sapiens, THP-1), 0.4 nM.
